Results on one compound are retold here after US6780871B2, “Methods and compositions for treating addiction disorders” (Albany Medical College, priority 2001, dated 2004).

Holding throughout (assay type): in vivo, rat
Assay [1] has as its system methamphetamine self-administration. Description: intravenous methamphetamine self-administration.
For the next assay, the system named is responding for water. Put plainly: bar-pressing (responding) for water. The following applies: dose of 3 mg/kg, alone, data not shown.
Assay [2] relates to morphine self-administration. Description: intravenous morphine self-administration. Particulars: 18-methoxycoronaridine 1 mg/kg i.p., dextromethorphan 5 mg/kg s.c. As to the method: Dextromethorphan hydrobromide (5 mg/kg; Sigma/RBI, St. Louis, Mo.) was dissolved in saline and injected subcutaneously 20 minutes before testing. Mecamylamine hydrochloride (1 mg/kg; Sigma/RBI, St. Louis, Mo.) was dissolved in physiological saline and injected intraperitoneally 30 minutes before testing. All rats received two injections. For rats that received a single drug, half of them also received the appropriate saline/vehicle injection corresponding to each of the other two drugs.
Naive female Long-Evans derived rats (250 g; Charles River, N.Y.) were maintained on a normal 12 h light cycle (lights on at 7:00 a.m., lights off at 7:00 p.m.). For all experiments the “Principles of Laboratory Animal Care” (NIH publication No. 85-23, revised 1985, which is hereby incorporated by reference) were followed.
The intravenous self-administration procedure described in Glick et al., “18-MC Reduces Methamphetamine and Nicotine Self-administration in Rats,” NeuroReport 11:2013-2015 (2000) (“Glick I”), which is hereby incorporated by reference, was employed. Briefly, responses on either of two levers (mounted 15 cm apart on the front wall of each operant test cage) were recorded on an IBM compatible computer with a Med Associates, Inc. interface. The intravenous self-administration system consisted of polyethylene-silicone cannulas constructed according to the design of Weeks, “Long-term Intravenous Infusion,” pp. 155-168 in Myers (ed.), Methods in Psychobiology, Vol. 2, New York: Academic Press (1972) (“Weeks”), which is hereby incorporated by reference; Instech harnesses and swivels; and Harvard Apparatus infusion pumps (#55-2222). Shaping of the bar-press response was initially accomplished by training rats to bar-press for water. Cannulas were then implanted in the external jugular vein according to procedures described in Weeks, which is hereby incorporated by reference. Self-administration testing began with a 16-h nocturnal session followed by daily 1-h sessions, 5 days (Monday-Friday) a week. A lever-press response produced a 10 μl infusion of drug solution (0.01 mg of morphine sulfate) in about 0.2 s or a 50 μl infusion of drug solution (0.025 mg of methamphetamine sulfate) in about 1 s. Since all rats generally weighed 250±20 g, each response delivered approximately 0.04 mg/kg of morphine or 0.1 mg/kg of methamphetamine. Experiments to assess the effects of experimental treatments were begun when baseline self-administration rates stabilized (≦10% variation from one day to the next across 5 days), usually after 2 weeks of testing.
Each data point represents the mean (±S.E.M.) percent of baseline of 6-8 rats. Significant differences between baseline and treatment are indicated by an asterisk (paired t-test, P<0.01-0.001).
Each data point represents the mean (±S.E.M.) percent of baseline of 5-8 rats. Significant differences between baseline and treatment are indicated by an asterisk (paired t-test), P<0.05-0.01).

Assay [3] relates to nicotine self-administration. Put plainly: nicotine self-administration. Particulars: Example 7, FIGS. 11-12: mecamylamine 0.1 mg/kg i.p., 18-methoxycoronaridine 0.5 mg/kg i.p., dextromethorphan 0.5 mg/kg s.c., bupropion 5 mg/kg i.p.; 5-8 rats.

As to `CNC1(C)C2CCC(C2)C1(C)C` (stereo not drawn) [mecamylamine], the “effect on methamphetamine self-administration (percent of baseline)” value in assay [1] (Example 5, FIG. 6: mecamylamine 1 mg/kg i.p., 18-methoxycoronaridine 2 mg/kg i.p., dextromethorphan 5 mg/kg s.c., 6-7 rats) is reported as “none of the drugs administered alone, significantly decreased”; in assay [1] (Example 6, FIG. 9: mecamylamine 1 mg/kg i.p., 18-methoxycoronaridine 5 mg/kg i.p., dextromethorphan 10 mg/kg s.c., bupropion 10 mg/kg i.p., 5-9 rats), “none of the drugs administered alone, significantly decreased”. For the same compound, in the assay with responding for water, the “effect on responding for water” value is “decreases responding for water”. Further, the “effect on morphine self-administration (percent of baseline)” value is given as “none of the drugs administered alone, significantly decreased” in assay [2] (Example 5, FIG. 5: mecamylamine 1 mg/kg i.p., 6-8 rats) and “none of the drugs administered alone, significantly decreased” in assay [2] (Example 6, FIG. 8: mecamylamine 1 mg/kg i.p., bupropion 5 mg/kg i.p., 5-8 rats). The “effect on nicotine self-administration (percent of baseline)” value in assay [3] was “none of the drugs administered alone, significantly decreased”.
